According to the supplement of paper PMC10307832:

How the values were obtained:
Test in all cases: relative viability (nuclei count vs DMSO), 5 days (fraction); higher = more cells survive
[1] = compound: C[C@]12O[C@H](C[C@]1(O)CO)n1c3ccccc3c3c4c(c5c6ccccc6n2c5c31)CNC4=O [Lestaurtinib] + CCNC(=O)c1noc(-c2cc(C(C)C)c(O)cc2O)c1-c1ccc(CN2CCOCC2)cc1 [Luminespib] (partner 0.01 µM)
Procedure, shortened: (§1)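 Lung cancer cell lines were seeded in 1536-well plates and dosed by pin tool the next day, with either a single drug or a fixed anchor-drug dose combined with five library-drug doses (not always all listed) spaced in √10 steps. Five days later, one step fixed the cells and stained their nuclei (final 0.05% Triton X-100, 1% formaldehyde, 1 ug/ml Hoechst), and nuclei were counted on 4× images. Relative viability is the nuclei count in treated wells divided by the count in vehicle wells, and each value is the median of duplicate plates.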

[2] = compound: C[C@]12O[C@H](C[C@]1(O)CO)n1c3ccccc3c3c4c(c5c6ccccc6n2c5c31)CNC4=O [Lestaurtinib] + C[C@@H](Oc1cc(-c2cnn(C3CCNCC3)c2)cnc1N)c1c(Cl)ccc(F)c1Cl [Crizotinib] (partner 1 µM)
Procedure, shortened: as §1

TPCA-1 + Crizotinib = compound: C1=CC(=CC=C1C2=CC(=C(S2)NC(=O)N)C(=O)N)F [TPCA-1] + C[C@@H](Oc1cc(-c2cnn(C3CCNCC3)c2)cnc1N)c1c(Cl)ccc(F)c1Cl [Crizotinib] (partner 1 µM)
Procedure, shortened: as §1

[3] = compound: C[C@]12O[C@H](C[C@]1(O)CO)n1c3ccccc3c3c4c(c5c6ccccc6n2c5c31)CNC4=O [Lestaurtinib] + Nc1nc2[nH]cc(CCc3ccc(C(=O)N[C@@H](CCC(=O)O)C(=O)O)cc3)c2c(=O)[nH]1 [Pemetrexed] (partner 0.2 µM)
Procedure, shortened: as §1

Row | Cell Line | relative viability ([1]; first compound 0.005 µM) | relative viability ([1]; first compound 0.01581 µM) | relative viability ([1]; first compound 0.05 µM) | relative viability ([1]; first compound 0.1581 µM) | relative viability ([1]; first compound 0.5 µM) | relative viability ([2]; first compound 0.005 µM) | relative viability ([2]; first compound 0.01581 µM) | relative viability ([2]; first compound 0.05 µM) | relative viability ([2]; first compound 0.1581 µM) | relative viability ([2]; first compound 0.5 µM) | relative viability (TPCA-1 + Crizotinib; first compound 0.04 µM) | relative viability (TPCA-1 + Crizotinib; first compound 0.1265 µM) | relative viability (TPCA-1 + Crizotinib; first compound 0.4 µM) | relative viability (TPCA-1 + Crizotinib; first compound 1.265 µM) | relative viability (TPCA-1 + Crizotinib; first compound 4 µM) | relative viability ([3]; first compound 0.005 µM) | relative viability ([3]; first compound 0.01581 µM) | relative viability ([3]; first compound 0.05 µM) | relative viability ([3]; first compound 0.1581 µM) | relative viability ([3]; first compound 0.5 µM)
1 | NCI-H2023 | 0.848 | 0.983 | 0.48 | 0.524 | 0.119 | 0.635 | 0.619 | 0.723 | 0.654 | 0.113 | 0.75 | 0.667 | 0.658 | 0.636 | 0.512 | 0.292 | 0.285 | 0.201 | 0.153 | 0.0898
2 | NCI-H2085 | 0.436 | 0.449 | 0.57 | 0.41 | 0.337 | 0.904 | 0.856 | 0.748 | 0.884 | 0.692 | 0.921 | 0.793 | 0.872 | 0.765 | 0.78 | 0.861 | 0.877 | 0.915 | 0.858 | 0.78
3 | NCI-H2087 | 0.158 | 0.253 | 0.163 | 0.148 | 0.165 | 1.07 | 0.789 | 1.04 | 0.746 | 0.253 | 0.801 | 0.828 | 0.781 | 0.867 | 0.283 | 0.708 | 0.688 | 0.675 | 0.632 | 0.332
4 | NCI-H2126 | 0.944 | 0.891 | 0.776 | 0.817 | 0.538 | 1.06 | 1.1 | 0.835 | 0.973 | 0.682 | 1.08 | 0.93 | 1.07 | 0.945 | 0.951 | 0.757 | 0.685 | 0.66 | 0.666 | 0.476
5 | NCI-H2170 | 0.501 | 0.519 | 0.593 | 0.383 | 0.266 | 1.05 | 1.06 | 0.68 | 0.924 | 0.292 | 1.33 | 1.15 | 1.16 | 1.13 | 0.583 | 0.258 | 0.259 | 0.259 | 0.261 | 0.175
6 | NCI-H2228 | 0.185 | 0.144 | 0.137 | 0.123 | 0.109 | 0.512 | 0.442 | 0.415 | 0.21 | 0.255 | 0.589 | 0.489 | 0.487 | 0.364 | 0.277 | 0.381 | 0.383 | 0.299 | 0.147 | 0.148
7 | NCI-H2347 | 0.501 | 0.661 | 0.404 | 0.246 | 0.297 | 0.715 | 0.854 | 0.71 | 0.585 | 0.545 | 0.806 | 0.557 | 0.676 | 0.553 | 0.521 | 0.443 | 0.43 | 0.432 | 0.44 | 0.404
8 | NCI-H2405 | 0.747 | 0.631 | 0.585 | 0.548 | 0.262 | 0.852 | 0.87 | 0.767 | 0.698 | 0.578 | 0.908 | 0.773 | 0.797 | 0.547 | 0.905 | 1.01 | 1.25 | 1.03 | 0.887 | 0.374
9 | NCI-H3122 | 0.114 | 0.116 | 0.115 | 0.0939 | 0.088 | 0.321 | 0.286 | 0.322 | 0.33 | 0.273 | 0.281 | 0.268 | 0.278 | 0.291 | 0.223 | 0.227 | 0.205 | 0.193 | 0.216 | 0.187
10 | PC-3 [JPC-3] | 0.647 | 0.645 | 0.53 | 0.525 | 0.255 | 0.975 | 1.15 | 1.01 | 1.15 | 0.693 | 0.982 | 0.943 | 1.07 | 0.962 | 0.819 | 0.747 | 1.5 | 0.918 | 0.94 | 0.613
11 | PC-14 | 0.154 | 0.154 | 0.172 | 0.108 | 0.151 | 0.883 | 0.958 | 0.786 | 0.595 | 0.688 | 0.818 | 0.864 | 0.891 | 0.832 | 0.615 | 0.153 | 0.131 | 0.154 | 0.154 | 0.0792
12 | RERF-LC-KJ | 1.1 | 1.55 | 0.828 | 0.959 | 0.417 | 0.856 | 0.969 | 0.674 | 0.799 | 0.6 | 0.875 | 0.815 | 0.835 | 0.792 | 0.758 | 0.482 | 0.496 | 0.417 | 0.455 | 0.351
13 | SK-LU-1 | 0.206 | 0.22 | 0.177 | 0.203 | 0.215 | 0.663 | 0.915 | 0.433 | 0.516 | 0.312 | 0.862 | 0.667 | 1.07 | 0.675 | 0.556 | 1 | 0.802 | 0.476 | 0.457 | 0.284
14 | SK-MES-1 | 0.714 | 0.619 | 0.391 | 0.229 | 0.261 | 1.02 | 0.964 | 0.92 | 0.505 | 0.281 | 1 | 0.907 | 0.923 | 0.948 | 0.589 | 0.982 | 0.918 | 0.506 | 0.413 | 0.26
15 | SW 1573 | 0.218 | 0.236 | 0.182 | 0.315 | 0.131 | 0.929 | 0.88 | 0.544 | 0.423 | 0.343 | 0.881 | 0.754 | 0.728 | 0.673 | 0.622 | 1.03 | 0.86 | 0.666 | 0.303 | 0.119
